In the supplement of paper PMC10307832:

Experiments:
Experiment in all cases: relative viability (nuclei count vs DMSO), 5 days (fraction); higher = more cells survive
Ispinesib + OSI-027 = compound: Cc1ccc(C(=O)N(CCCN)[C@@H](c2nc3cc(Cl)ccc3c(=O)n2Cc2ccccc2)C(C)C)cc1 [Ispinesib] + COc1cccc2cc(-c3nc([C@H]4CC[C@H](C(=O)O)CC4)n4ncnc(N)c34)[nH]c12 [OSI-027] (partner 0.5 µM)
Procedure, shortened: (§1)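 Nuclei were stained with Hoechst during a one-step fixation (final 0.05% Triton X-100, 1% formaldehyde, 1 ug/ml Hoechst) carried out 5 days after dosing, then counted on 4× images. The cells, lung cancer lines in 1536-well plates, had been dosed by pin tool the day after seeding with one drug alone or a fixed anchor-drug dose plus five library-drug doses (not always all listed) in √10 steps. Relative viability is the nuclei count in treated wells divided by that in vehicle wells, and each value is the median of duplicate plates.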

Ispinesib + Phenformin = compound: Cc1ccc(C(=O)N(CCCN)[C@@H](c2nc3cc(Cl)ccc3c(=O)n2Cc2ccccc2)C(C)C)cc1 [Ispinesib] + N=C(N)NC(=N)NCCc1ccccc1 [Phenformin] (partner 250 µM)
Procedure, shortened: as §1

Linsitinib + Pemetrexed = compound: C[C@]1(O)C[C@@H](c2nc(-c3ccc4ccc(-c5ccccc5)nc4c3)c3c(N)nccn32)C1 [Linsitinib] + Nc1nc2[nH]cc(CCc3ccc(C(=O)N[C@@H](CCC(=O)O)C(=O)O)cc3)c2c(=O)[nH]1 [Pemetrexed] (partner 0.2 µM)
Procedure, shortened: as §1

Linsitinib + Luminespib = compound: C[C@]1(O)C[C@@H](c2nc(-c3ccc4ccc(-c5ccccc5)nc4c3)c3c(N)nccn32)C1 [Linsitinib] + CCNC(=O)c1noc(-c2cc(C(C)C)c(O)cc2O)c1-c1ccc(CN2CCOCC2)cc1 [Luminespib] (partner 0.01 µM)
Procedure, shortened: as §1

Cell Line	relative viability (Ispinesib + OSI-027; first compound 0.001 µM)	relative viability (Ispinesib + OSI-027; first compound 0.003162 µM)	relative viability (Ispinesib + OSI-027; first compound 0.01 µM)	relative viability (Ispinesib + OSI-027; first compound 0.03162 µM)	relative viability (Ispinesib + OSI-027; first compound 0.1 µM)	relative viability (Ispinesib + Phenformin; first compound 0.001 µM)	relative viability (Ispinesib + Phenformin; first compound 0.003162 µM)	relative viability (Ispinesib + Phenformin; first compound 0.01 µM)	relative viability (Ispinesib + Phenformin; first compound 0.03162 µM)	relative viability (Ispinesib + Phenformin; first compound 0.1 µM)	relative viability (Linsitinib + Pemetrexed; first compound 0.01 µM)	relative viability (Linsitinib + Pemetrexed; first compound 0.03162 µM)	relative viability (Linsitinib + Pemetrexed; first compound 0.1 µM)	relative viability (Linsitinib + Pemetrexed; first compound 0.3162 µM)	relative viability (Linsitinib + Pemetrexed; first compound 1 µM)	relative viability (Linsitinib + Luminespib; first compound 0.01 µM)	relative viability (Linsitinib + Luminespib; first compound 0.03162 µM)	relative viability (Linsitinib + Luminespib; first compound 0.1 µM)	relative viability (Linsitinib + Luminespib; first compound 0.3162 µM)	relative viability (Linsitinib + Luminespib; first compound 1 µM)
NCI-H3122	1.07	1.38	1.06	0.218	0.14	0.384	0.408	0.856	0.197	0.108	0.18	0.177	0.212	0.184	0.196	0.0915	0.1	0.0744	0.0902	0.0925
PC-3 [JPC-3]	0.703	0.841	0.851	0.627	0.431	0.494	0.475	0.44	0.461	0.254	1.13	1.04	1.2	0.891	0.665	0.716	0.69	0.764	0.669	0.712
PC-14	0.983	0.791	0.256	0.0319	0.0859	0.607	0.755	0.338	0.122	0.0821	0.137	0.0865	0.16	0.121	0.148	0.217	0.112	0.18	0.196	0.103
RERF-LC-KJ	0.527	0.541	0.405	0.246	0.268	0.422	0.365	0.33	0.217	0.253	0.414	0.461	0.48	0.349	0.491	1.12	1.15	1.42	1.13	1.1
SK-LU-1	0.395	0.386	0.445	0.216	0.199	0.555	0.627	0.561	0.251	0.203	0.913	0.686	0.997	0.894	0.985	0.212	–	0.203	0.208	0.215
SK-MES-1	0.732	0.601	0.628	0.182	0.229	0.753	0.714	0.761	0.193	0.186	0.991	0.795	0.958	0.784	0.753	0.845	0.854	0.953	0.652	0.762
SW 900	0.751	0.617	0.553	0.345	0.225	0.619	0.41	0.812	0.427	0.21	0.484	0.44	0.478	0.438	0.405	0.169	0.204	0.189	0.162	0.165
SW 1573	0.622	0.645	0.526	0.162	0.186	0.373	0.369	0.426	0.145	0.141	0.912	0.676	0.921	0.828	0.732	0.22	0.359	0.238	0.129	0.238
